“Also recorded” adds a separate entry of the source. Like-named read-outs stand apart in the source and are kept apart here. Non-standard residues stand in square brackets, D forms with d. Residues, ends and D or L forms follow the SMILES beside them. *: point of attachment. DOTA = O=C(O)CN1CCN(CC(=O)O)CCN(CC(=O)*)CCN(CC(=O)O)CC1; pY = N[C@@H](Cc1ccc(OP(=O)(O)O)cc1)C(=O)O; Nle = CCCC[C@H](N)C(=O)O
How the values were obtained:
[1] = cited from earlier work
From the text: Another approach to reduce uptake of radioactivity by the kidneys is coinjection of radiopeptides with basic amino acids. […] This method was first applied for ^111In-labeled DTPA-octreotide ([31], [32]) and ^90Y-labeled DOTA-[Tyr^3]-octreotide ([32], [33]).

[2] = Biodistribution of ^111In-labeled peptides in B16-F1 melanoma-bearing mice; type: in vivo, mouse (B6D2F1); settings: female, iv, total radioactivity; for tissue to tissue ratio at 24 h / tissue to tissue ratio at 48 h: B6D2F1 (C57BL/6 × DBA/2F1 hybrids), mouse; for tissue to tissue ratio at 24 h / tissue to tissue ratio at 48 h / tissue to tissue ratio at 4 h: 185 kBq, mean tumor uptake divided by mean kidney uptake; for tissue to tissue ratio at 24 h: 24 h postinjection; for tissue to tissue ratio at 48 h: 48 h postinjection; for tissue to tissue ratio at 4 h / tissue uptake at 4 h: B6D2F1, mouse; for tissue to tissue ratio at 4 h: 4 h postinjection; for tissue uptake at 4 h: ^111In-labeled peptide, 185 kBq i.v., mean ± SEM of three experiments, n = 5 animals each
Method: (§1) About 5 × 10^5 B16-F1 cells were implanted subcutaneously to female B6D2F1 mice (C57BL/6 × DBA/2F1 hybrids; breeding pairs obtained from IFFA-CREDO, France). Seven days later, 185 kBq of ^111In-labeled ligand in 200 µL PBS/0.1% BSA were injected intravenously into the lateral tail vein of each mouse. Control mice were injected with a mixture of the tracer and 50 µg α-MSH to determine the non-specific uptake of radioligand. The animals were sacrificed 4, 24, and 48 h postinjection, dissected, and the tissues of interest collected, rinsed of excess blood, and weighed. The radioactivity emitted by each organ was measured in a γ-counter to determine the tissue uptake as percentage of the injected dose (ID) per gram of tissue. The total of injected radioactivity per animal was determined by extrapolation from the counts of a standard collected from the injection solution for each animal. Urine samples were collected at 10, 15, and 20 min and 4 h after injection and kept frozen at −80°C until use. Urine (1 vol) was mixed with methanol (2 vol) to precipitate proteins, and the supernatant was analyzed by RP-HPLC/γ-detection, as described in Ref. ([12]).
(§2) Results are expressed as means ± SEM, unless otherwise stated. The statistical evaluation of data was performed using the one- or two-way ANOVA test. When significant overall effects were obtained by ANOVA, multiple comparisons were made with the Bonferroni correction. P < 0.05 was considered statistically significant. The area under the curve (AUC) was calculated with the GraphPad Prism 6 software for the indicated period of time, using the mean tissue uptake value at each time point.

B16-F1 cells = experiment: Internalization by cultured B16-F1 cells; type: cell-based, mouse
Method: B16-F1 cells were seeded in six-well plates and incubated overnight in MEM at 37°C. For the internalization experiments, MEM was replaced by 1 mL MBM (see above) as internalization buffer. After a 1-h incubation at 37°C, 74 kBq of radioligand (^111In-labeled peptides) was added, and the plates were incubated for different time periods. Non-specific internalization was determined by addition of 50 µL of a 1 µM α-MSH solution to the incubation mixture. After the desired incubation times, the cells were extensively washed with MBM kept at 37°C to remove excess radioligand. Incubation in 2 mL ice-cold acid buffer (acetate-buffered Hank’s balanced salt solution, pH 5) for 10 min allowed dissociation of surface-bound ligand. After collection of the acid buffer fraction, the cells were rinsed once with cold MBM, and the washings were pooled with the acid buffer fraction. The cells were washed again with MBM kept at 37°C, lysed in a 1% Triton X-100 solution, and finally transferred to tubes for quantification. The radioactivity of all collected fractions was measured in a γ-counter. A counting plate underwent the same treatment as the plate incubated for the longest time, but its cells were detached with 0.02% EDTA in PBS instead of being lysed with the Triton X-100 solution. Cells from three wells were collected, counted, and thus allowed for normalization of the results obtained. Results were expressed as percent of the added dose per million cells.
Figure 3 Determination of internalization of [^111In] DOTA-NAP-D-Asp-D-Asp (A) and [^111In]DOTA-Phospho-MSH2-9 (B) by cultured B16-F1 cells exposed to the peptides at 37°C for 0.5, 2, and 3.5 h. Surface-bound radioligand was released by an acid buffer wash, and internalized radioligand was determined by lysing cells with detergent. Results are expressed in percent of the added dose per million cells.

[3] = test system: B16-F1 tumor-bearing mice; experiment: Biodistribution of ^111In-labeled peptides in B16-F1 melanoma-bearing mice; type: in vivo, mouse (B6D2F1)
Method: as §1, §2

[4] = cited from earlier work; remark: listed apart in the source
MC1R = settings: cited from earlier work
[5] = kidney, read-out: Kidney uptake

NCCCC[C@@H](N)C(=O)O [D-Lys]
Effect of coinjection on tumor uptake (in words) [1]: without affecting tumor uptake | Reduction of kidney uptake of radiopeptides by coinjection ([1]; coinjected with ^111In-/^90Y-labeled octreotide peptides): up to 65%

CCCC[C@H](NC(C)=O)C(=O)N[C@@H](CC(=O)O)C(=O)N[C@@H](Cc1c[nH]cn1)C(=O)N[C@H](Cc1ccccc1)C(=O)N[C@@H](CCCNC(=N)N)C(=O)N[C@@H](Cc1c[nH]c2ccccc12)C(=O)NCC(=O)N[C@@H](CCCCNC(=O)CN1CCN(CC(=O)O)CCN(CC(=O)O)CCN(CC(=O)O)CC1)C(=O)N[C@H](CC(=O)O)C(=O)N[C@H](CC(=O)O)C(=O)O [[^111In]DOTA-NAP-D-Asp-D-Asp, metal not drawn] (Ac-[Nle]DH[dF]RWGK(DOTA)[dD][dD]-OH; N-terminus and C-terminus assumed)
tissue to tissue ratio at 24 h [2]: 0.15 | tissue to tissue ratio at 48 h [2]: 0.11 | tissue to tissue ratio at 4 h [2]: 0.32 | tissue uptake at 4 h [2, 5]: 5.95 ± 0.85 %ID/g | tissue uptake at 4 h ([2]; tumor, read-out: Tumor uptake): 1.93 ± 0.11 %ID/g

CCCC[C@H](NC(C)=O)C(=O)N[C@@H](CC(=O)O)C(=O)N[C@@H](Cc1c[nH]cn1)C(=O)N[C@H](Cc1ccccc1)C(=O)N[C@@H](CCCNC(=N)N)C(=O)N[C@@H](Cc1c[nH]c2ccccc12)C(=O)NCC(=O)N[C@@H](CCCCNC(=O)CN1CCN(CC(=O)O)CCN(CC(=O)O)CCN(CC(=O)O)CC1)C(=O)N[C@H](CC(=O)O)C(=O)N[C@H](CC(=O)O)C(=O)O [[^111In]DOTA-NAP-D-Asp-D-Asp] [metal not drawn] (Ac-[Nle]DH[dF]RWGK(DOTA)[dD][dD]-OH; N-terminus and C-terminus assumed)
Internalization profile (in words) (B16-F1 cells; 37°C, 0.5, 2 and 3.5 h, 74 kBq radioligand): excellent internalization profiles | Internalization plateau (in words) (B16-F1 cells; 37°C, 3.5 h): not quite reached | Uptake by other organs (in words) ([3]; 4–48 h): Other organs did not substantially accumulate the radiopeptide | Kidney uptake higher than that of [^111In]DOTA-NAP-amide ([3]; 4 h after injection): 25% | Radioactive load of kidney higher than with the reference peptide ([3]; 24 h after injection): 70%

CCCC[C@H](NC(C)=O)C(=O)N[C@@H](CC(=O)O)C(=O)N[C@@H](Cc1c[nH]cn1)C(=O)N[C@H](Cc1ccccc1)C(=O)N[C@@H](CCCNC(=N)N)C(=O)N[C@@H](Cc1c[nH]c2ccccc12)C(=O)NCC(=O)N[C@@H](CCCCNC(=O)CN1CCN(CC(=O)O)CCN(CC(=O)O)CCN(CC(=O)O)CC1)C(N)=O [[^111In]DOTA-NAP-amide, metal not drawn, reference compound]
Metabolite in vivo (in words) ([4]; 4 h after injection, ref Froidevaux and Eberle, unpublished): Lys([^111In]DOTA), a metabolite of internalized [^111In]DOTA-NAP-amide occurring 4 h after injection | tissue to tissue ratio at 24 h [2]: 0.96 | tissue to tissue ratio at 48 h [2]: 0.91 | tissue to tissue ratio at 4 h [2]: 1.63 | tissue uptake at 4 h [2, 5]: 4.77 ± 0.26 %ID/g | tissue uptake at 4 h ([2]; tumor, read-out: Tumor uptake): 7.77 ± 0.35 %ID/g

CCCC[C@H](NC(=O)[C@H](Cc1ccc(OP(=O)(O)O)cc1)NC(=O)CNC(=O)CN1CCN(CC(=O)O)CCN(CC(=O)O)CCN(CC(=O)O)CC1)C(=O)N[C@@H](CC(=O)O)C(=O)N[C@@H](Cc1c[nH]cn1)C(=O)N[C@H](Cc1ccccc1)C(=O)N[C@@H](CCCNC(=N)N)C(=O)N[C@@H](Cc1c[nH]c2ccccc12)C(N)=O [[^111In]DOTA-Phospho-MSH2-9, metal not drawn] ({DOTA}-G[pY][Nle]DH[dF]RW-NH2)
tissue to tissue ratio at 24 h [2]: 1.55 | tissue to tissue ratio at 48 h [2]: 1.16 | tissue to tissue ratio at 4 h [2]: 2.75 | tissue uptake at 4 h [2, 5]: 2.68 ± 0.18 %ID/g | tissue uptake at 4 h ([2]; tumor, read-out: Tumor uptake): 7.33 ± 0.47 %ID/g

CCCC[C@H](NC(=O)[C@H](Cc1ccc(OP(=O)(O)O)cc1)NC(=O)CNC(=O)CN1CCN(CC(=O)O)CCN(CC(=O)O)CCN(CC(=O)O)CC1)C(=O)N[C@@H](CC(=O)O)C(=O)N[C@@H](Cc1c[nH]cn1)C(=O)N[C@H](Cc1ccccc1)C(=O)N[C@@H](CCCNC(=N)N)C(=O)N[C@@H](Cc1c[nH]c2ccccc12)C(N)=O [[^111In]DOTA-Phospho-MSH2-9] [metal not drawn] ({DOTA}-G[pY][Nle]DH[dF]RW-NH2)
Effect of coinjection of α-MSH on melanoma uptake (in words) ([3]; 50 µg α-MSH coinjected, data not shown): significantly blocked melanoma uptake | Clearance from the kidney (in words) ([3]; 4–48 h): slightly slower | Uptake by other organs (in words) ([3]; 4–48 h): very low and did not exceed the values found with [^111In]DOTA-NAP-amide | Kidney retention lower than that of [^111In]DOTA-NAP-amide ([3]; 4 h after injection): 44% | Kidney uptake as percentage of that of the reference peptide ([3]; 4 h after injection): 56% | Retention of radioactivity by the tumor ([3]; 24 h postinjection, decreased to % of 4 h value): 40% | Tumor-to-kidney ratio compared with other peptides (in words) ([3]; AUC (4–48 h) or overall comparison): threefold higher; also recorded: most favorable tumor-to-kidney ratio of a linear DOTA-MSH radiopeptide reported to date | Kidney uptake/retention compared with reference (in words) ([3]; in vivo): markedly lower | Tumor uptake compared with reference (in words) ([3]; in vivo, B16-F1 tumors): almost identical with that of [^111In]DOTA-NAP-amide; also recorded: about as high as for the reference compound | Kidney uptake compared with other peptides (in words) ([3]; peptides of net charge −2 to +2, five of the eight peptides from ref 14): slightly lower kidney uptake than [^111In-DOTA-Nle^4,Asp^5,D-Phe^7,Lys^11(Suc)]-α-MSH4-11-carboxylate

Ac-Nle-cyclo[Asp-His-D-Phe-Arg-Trp-Lys]-NH2 (sidechain bridge or staple) [melanotan II]
Binding affinity (in words) (MC1R; cyclic analog compared with α-MSH): increased binding affinity

[DOTA-Nle^4,Asp^5,D-Phe^7,Lys^11(Suc)]-α-MSH4-11-carboxylate
Kidney uptake (in words) ([4]; in vivo): reduced kidney uptake | Tumor uptake (in words) ([4]; in vivo): tumor uptake was also affected | Tumor-to-kidney ratio (in words) ([4]; in vivo): even lower than that of the parent molecule

[Nle^4, D-Phe^7]-α-MSH [NDP-MSH]
Binding affinity (in words) (MC1R; linear analog compared with α-MSH): increased binding affinity

[^111In-DOTA-Nle^4,Asp^5,D-Phe^7,Lys^11(Suc)]-α-MSH4-11-carboxylate
MC1R affinity (in words) (MC1R): lower MC1R affinity | AUC (4–48 h), tumor-to-kidney ([4]; in vivo): 0.62 | Kidney uptake (in words) ([4]; in vivo): lowest kidney uptake | Tumor uptake (in words) ([4]; in vivo): reduced uptake by melanoma tumors

Reference: article PMC5405074, “Receptor-Mediated Melanoma Targeting with Radiolabeled α-Melanocyte-Stimulating Hormone: Relevance of the Net Charge of the Ligand” (Frontiers in Endocrinology, 2017)
